The subject of assay [1] is BH4 levels in SK-N-BE (2) cells. Description: SKN-N-BE (2) cellular assay, BH4 levels by LC-MS. In kind it is cell-based. The conditions noted are these: Homo sapiens, SKNBE2, read-out: SK-N-BE(2) IC50, SK-N-BE (2) cells, BH4 levels by LC-MS.
For assay [2], the target named is SNAP-hSPR (sepiapterin reductase, SPR) (Homo sapiens, UniProt P35270). The assay can be described thus: biochemical. In kind it is binding. The conditions noted are these: terbium labelled SNAP-hSPR / SSZ labelled SNAP-EGFP; read-out: hTR-FRET IC50.
Assay [3] relates to BH4 production in human peripheral blood mononuclear cells (PBMCs). The assay can be described thus: hPBMC assay, inhibition of BH4 production by LC-MS (anti-CD3/anti-CD28 stimulated). In kind it is cell-based. The conditions noted are these: PBMC, read-out: hPBMC IC50.
Description: hPBMC Assay: PBMCs were either purchased or isolated from fresh human blood and used either as a fresh preparation or frozen for later use. The assay system was prepared by pre-treating the assay plates overnight with a solution containing anti-human CD3 antibody. Human PBMCs were suspended in assay medium and plated into the assay plates at a density of 1-4×10^5 cells per well. The desired concentration of the test compound was added to each well. A solution of human anti-CD28 antibody was also added to each well. Plates were incubated for 12-48 hours at 37° C. and 5% CO2. Assay plates were centrifuged for 5-15 minutes at 1-3000 RMP and supernatants were removed. The cells were lysed, sealed and used directly or frozen at −80° C. LC-MS was used to quantify the amount of inhibition of BH4 production.
PBMCs were either purchased or isolated from fresh human blood and used either as a fresh preparation or frozen for later use. The assay system was prepared by pre-treating the assay plates overnight with a solution containing anti-human CD3 antibody. Human PBMCs were suspended in assay medium and plated into the assay plates at a density of 1-4×10^5 cells per well. The desired concentration of the test compound was added to each well. A solution of human anti-CD28 antibody was also added to each well. Plates are incubated for 12-48 hours at 37° C. and 5% CO2. Assay plates were centrifuged for 5-15 minutes at 1-3000 RMP and supernatants were removed. The cells were lysed, sealed and used directly or frozen at −80° C.

Molecules are shown by their SMILES.

Chain of SNAP-hSPR (sepiapterin reductase, SPR) (P35270 whole entry): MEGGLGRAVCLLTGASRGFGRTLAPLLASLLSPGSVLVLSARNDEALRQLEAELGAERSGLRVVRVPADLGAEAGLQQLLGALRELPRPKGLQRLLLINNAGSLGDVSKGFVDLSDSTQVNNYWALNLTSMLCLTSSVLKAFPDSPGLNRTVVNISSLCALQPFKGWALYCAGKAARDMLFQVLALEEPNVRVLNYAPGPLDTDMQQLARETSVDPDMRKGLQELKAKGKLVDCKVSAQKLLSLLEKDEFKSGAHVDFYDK

For `Cc1c(C(=O)N2C[C@H]3CN(C(=O)OC(C)(C)C)C[C@H]32)cnn1-c1nn2cccc2c(=O)[nH]1` [Q-0842], the values for the half-inhibitory concentration (IC50) in assay [1] and in assay [2] were 700 nM and 2 nM, respectively.
The like results for `Cc1c(C(=O)N2CCN(c3ccccn3)CC2)cnn1-c1nn2cccc2c(=O)[nH]1` [Q-0843] were, in that order, 200 nM and 1 nM.
For `Cc1c(C(=O)N2CCC3C(C2)C3C(F)(F)F)cnn1-c1nn2cccc2c(=O)[nH]1` (stereo not shown) [Q-0844] the same measures were 200 nM and 1 nM.
Regarding `Cc1c(C(=O)N2CCN(c3ccc(C#N)cn3)CC2)cnn1-c1nn2cccc2c(=O)[nH]1` [Q-0845], the IC50 (commonly the concentration needed to halve the response being measured) in assay [1] amounted to 400 nM; in assay [2], 3 nM.
Take `Cc1c(C(=O)N2CC3CN(c4ccccc4)CC3C2)cnn1-c1nn2cccc2c(=O)[nH]1` (stereo not shown) [Q-0846]: the results for the half-inhibitory concentration (IC50) in assay [1] and in assay [2] were 200 nM and 2 nM, respectively.
With `Cc1c(C(=O)N2CC3CN(C)CC3C2)cnn1-c1nn2cccc2c(=O)[nH]1` (stereo not shown) [Q-0847], the IC50 in assay [1] worked out at 8800 nM; in assay [2], 20 nM.
Take `Cc1c(C(=O)N2CCC3(CCNC3=O)CC2)cnn1-c1nn2cccc2c(=O)[nH]1` [Q-0848]: the half-maximal inhibitory concentration (IC50) in assay [1] turned out to be 10000 nM; in assay [2], 2 nM.
As for `Cc1c(C(=O)N2CCC(NC(=O)OC(C)(C)C)(C(F)(F)F)C2)cnn1-c1nn2cccc2c(=O)[nH]1` (stereo not shown) [Q-0852], the 50% inhibitory concentration (IC50) in assay [1] amounted to 800 nM; in assay [2] it was 2 nM.
The like results for `Cc1c(C(=O)N2CCn3cnnc3C2)cnn1-c1nn2cccc2c(=O)[nH]1` [Q-0853] were, in that order, 10000 nM and 30 nM.
The like results for `Cc1c(C(=O)N2C3CCC2CN(c2ccc(C(F)(F)F)cn2)C3)cnn1-c1nn2cccc2c(=O)[nH]1` [Q-0854] were, in that order, 200 nM and 3 nM.
The like results for `Cc1c(C(=O)N2CCC(C(C#N)C3CC3)CC2)cnn1-c1nn2cccc2c(=O)[nH]1` (stereo not shown) [Q-0855] were, in that order, 100 nM and 1 nM.
Take `Cc1c(C(=O)N2CCN3CCC[C@H]3C2)cnn1-c1nn2cccc2c(=O)[nH]1` [Q-0856]: the IC50 in assay [1] is 1100 nM; in assay [2] it was 4 nM.
Consider `Cc1c(C(=O)N2C[C@@H]3CN(C(=O)OC(C)(C)C)C[C@@H]32)cnn1-c1nn2cccc2c(=O)[nH]1` [Q-0857], for which the values for the IC50 in assay [1] and in assay [2] were 800 nM and 3 nM, respectively.
For `Cc1c(C(=O)N2CCn3c(nnc3C(F)(F)F)C2)cnn1-c1nn2cccc2c(=O)[nH]1` [Q-0859] the same measures were 8300 nM and 20 nM.
Turning to `Cc1c(C(=O)N2CCC3(CC2)CC3C(=O)N2CCOCC2)cnn1-c1nn2cccc2c(=O)[nH]1` (stereo not shown) [Q-1070], the results for the IC50 in assay [3] and in assay [2] were 200 nM and 2 nM, respectively.
The like results for `Cc1c(C(=O)N2CCC2c2ccc(Cl)cc2)cnn1-c1nn2cccc2c(=O)[nH]1` (stereo not shown) [Q-1071] were, in that order, 32 nM and 6 nM.
As to `CC[C@@H](C#N)C1CCN(C(=O)c2cnn(-c3nc4c(c(=O)[nH]3)CCC4)c2C)CC1` [Q-1072], the half-maximal inhibitory concentration (IC50) turned out to be 55 nM in assay [3] and 2 nM in assay [2].
The like results for `C=CCC(C#N)C1CCN(C(=O)c2cnn(-c3nc4c(c(=O)[nH]3)CCC4)c2C)CC1` (stereo not shown) [Q-1073] were, in that order, 55 nM and 3 nM.
The like results for `Cc1c(C(=O)N2CCC(c3noc(C(F)(F)F)n3)CC2)cnn1-c1nn2cccc2c(=O)[nH]1` [Q-1074] were, in that order, 22 nM and 1 nM.
For `Cc1c(C(=O)N2CCC(c3noc(C(F)(F)F)n3)CC2)cnn1-c1nc2c(c(=O)[nH]1)CCC2` [Q-1075] the same measures were 17 nM and 2 nM.
With `Cc1c(C(=O)N2CCC(c3nccs3)CC2)cnn1-c1nc2c(c(=O)[nH]1)CCC2` [Q-1076], the IC50 in assay [3] was found to be 35 nM; in assay [2], 1 nM.
For `Cc1c(C(=O)N2CCC3(CC2)CC3C(=O)N2CCOCC2)cnn1-c1nc2c(c(=O)[nH]1)CCC2` (stereo not shown) [Q-1077] the same measures were 160 nM and 5 nM.
Take `Cc1c(C(=O)N2CCc3nc(C(F)(F)F)sc3C2)cnn1-c1nn2cccc2c(=O)[nH]1` [Q-1078]: the IC50 in assay [3] stood at 36 nM; in assay [2], 5 nM.

Values taken from US9963462B2 (priority 2015, dated 2018).
